Assay results as given in patent US11098077B2, “Locked nucleic acid cyclic dinucleotide compounds and uses thereof” (CHINOOK THERAPEUTICS, INC., priority 2016, dated 2021).

Tests used:
[1] = test system: serum TNF-α, IFN-γ, IL-6, MCP-1; assay: Systemic serum pro-inflammatory cytokines by Mouse Inflammation Cytometric Bead Array; conditions: from serum cytokines six hours post-IT injection
Protocol: (§5) To assess the ability of the LNA-CDN molecules to promote anti-tumor immunity in aggressive murine tumor models, 6-8 week old female C57BL/6 mice (8 mice per group) were implanted with B16.SIY melanoma tumor cells (1×10^6 cells in 100 μL PBS). […] Treatments began when tumors reached a volume of approximately 100 mm^3, on day 9 post tumor implantation. The compounds were administered by a single subcutaneous injection into the center of the tumor (IT) using a 27 gauge needle. Tumors were measured twice weekly.

[2] = target: T1, hSTING WT (Homo sapiens, UniProt Q86WV6, H232R); assay: Differential scanning fluorometry (DSF) binding to purified STING AA140-379, wild type; conditions: for hSTING Tm Shift WT: DSF, ligand 1 mM, 1 mg/ml STING AA140-379; for Tm shift compared with natural ligand 2′3′-(G)(A) / Tm shift compared with reference compound 2′3′-RR-(A)(A): for all three alleles (WT, HAQ, REF)
T1 construct: DNA encoding amino acids 140-379 (amino acid numbering corresponding to Swiss Prot Q86WV6); 6xHIS (N, cleaved yes); SUMO (N, cleaved yes); made in house; host or cells: Rosetta2 (DE3) E. coli
Protocol: (§1) Cells were grown in lysogeny broth at 37° C. until a […] absorbance of 0.6 was reached. […] Cell pellets were re-suspended on ice in a buffer containing 50 mM Tris hydrochloride (Tris-HCl) pH 7.5, 500 mM sodium chloride (NaCl), 20 mM imidazole, 10% glycerol, 1 mM tris(2-carboxyethyl)phosphine hydrochloride (TCEP) and protease inhibitor tablet (Pierce) (Buffer A). Cells were lysed using an S-450D sonifier (Emmerson industrial) on ice. […] Protein was aliquoted, flash frozen in liquid nitrogen and stored at −80° C. until use.
(§2) The protein is heated in the presence of a dye that binds to and fluoresces in hydrophobic environments. The protein is thermally denatured by heating resulting in increased dye binding to the unfolded protein and fluorescence. The temperature midpoint (Tm) of a proteins denaturation is established by calculating the half maximal value of the denaturation curve. The temperature midpoint of the protein in the presence of a ligand is directly related to the affinity of the ligand for the protein and therefore its ability to stabilize the protein at higher temperatures.
(§3) Each of wild type hSTING, HAQ allele hSTING and REF allele hSTING were used with each of the reference compounds and compounds of the invention as listed in Table 4. Samples were placed in hard shell PCR plate (Bio-Rad). The fluorescence as a function of temperature was recorded in a CFX 96 real time PCR machine (Bio-Rad) reading on the HEX channel, excitation 450-490, emission 560-580 nm. The temperature gradient was from 15-80° C. ramping 0.5° C. per 15 seconds and recording every 0.5° C. After subtraction of the background signal from a sample lacking protein and ligand. The midpoint temperature (Tm) was calculated by fitting the curves of the fluorescence as a function of temperature to a Boltzmann sigmoidal function (Graph Pad Prism).

[3] = target: T2, hSTING REF allele (Homo sapiens, UniProt Q86WV6); assay: Differential scanning fluorometry (DSF) binding to purified STING AA140-379, REF allele; conditions: for hSTING Tm Shift REF: DSF, ligand 1 mM, 1 mg/ml STING AA140-379; for Tm shift compared with 2′3′-RR-(A)(A) and 2′3′-(G)(A): for the REF allele
T2 construct: DNA encoding amino acids 140-379 (amino acid numbering corresponding to Swiss Prot Q86WV6); 6xHIS (N, cleaved yes); SUMO (N, cleaved yes); made in house; host or cells: Rosetta2 (DE3) E. coli
Protocol: as §1, §2, §3

[4] = test system: B16.SIY melanoma tumor cells; assay: B16.SIY melanoma tumor model, intra-tumoral injection (Example 13); format: in vivo, C57BL/6 mice; conditions: for tumor efficacy compared to reference compound 2′3′-RR-(A)(A): 1 μg dose; for tumor inhibition (tumor volume) compared to HBSS: single IT injection, 0.1, 1, 10 and 100 μg
Protocol: (§4) Tumors were measured twice weekly.

[5] = target: T3, hSTING HAQ allele (Homo sapiens, UniProt Q86WV6, G230A/H232R/R293Q); assay: Differential scanning fluorometry (DSF) binding to purified STING AA140-379, HAQ allele; conditions: ligand 1 mM, 1 mg/ml STING AA140-379
T3 construct: DNA encoding amino acids 140-379 (amino acid numbering corresponding to Swiss Prot Q86WV6); 6xHIS (N, cleaved yes); SUMO (N, cleaved yes); made in house; host or cells: Rosetta2 (DE3) E. coli
Protocol: as §1, §2, §3

[6] = target: T4, hSTING HAQ allele in THP1-Dual cells (Homo sapiens, UniProt Q86WV6, G230A/H232R/R293Q/R71H); assay: THP1-Dual IRF-3 inducible secreted luciferase reporter assay (type I interferon activation), without digitonin; format: cell-based
T4 construct: a human monocyte cell line containing the hSTING HAQ allele; host or cells: THP1-Dual cells
Protocol: After 30 minutes, cells were washed and fresh RPMI media containing 10% FBS was added, and cells were incubated at 37° C. with 5% CO2 Cell culture supernatants from each sample were collected after overnight incubation, and 10 μL of the cell culture supernatants was added to 50 μL QUANTI-Luc reagent (Invivogen). Type I interferon activation was determined by measuring secreted luciferase levels on a SpectraMax M3 spectrophotometer (Molecular Devices).

[7] = test system: SIY-specific T cells in splenocytes; assay: IFNγ ELISPOT of splenocytes stimulated with SIY peptide; format: in vivo, C57BL/6 mice; conditions: day 7 post IT injection; for IFNγ ELISPOT T cell responses compared to reference compound 2′3′-RR-(A)(A): 1 μg dose
[8] = test system: SIY-specific CD8+ T cells in splenocytes; assay: FACS of splenocytes with SIY pentamer (SIY+ CD8+ T cells); format: in vivo, C57BL/6 mice; conditions: day 7 post IT injection
Protocol: as §4
Data analysis was conducted with FlowJo software (Tree Star).

[9] = test system: serum TNF-α, IFN-γ, IL-6, MCP-1; conditions: mouse, in vivo
Protocol: as §5

[10] = test system: B16.SIY melanoma cells; assay: B16.SIY melanoma tumor model in STING-deficient Goldenticket mice (Example 14); format: in vivo; conditions: STING-deficient GT mice; single IT injection, 100 μg
Protocol: as §4

[11] = test system: B16.SIY melanoma cells; assay: B16.SIY melanoma tumor model in WT mice (Example 14); format: in vivo, C57BL/6 (WT) mice; conditions: single IT injection, 100 μg
Protocol: as §4

T4 sequence (Q86WV6 whole entry R71H/G230A/H232R/R293Q): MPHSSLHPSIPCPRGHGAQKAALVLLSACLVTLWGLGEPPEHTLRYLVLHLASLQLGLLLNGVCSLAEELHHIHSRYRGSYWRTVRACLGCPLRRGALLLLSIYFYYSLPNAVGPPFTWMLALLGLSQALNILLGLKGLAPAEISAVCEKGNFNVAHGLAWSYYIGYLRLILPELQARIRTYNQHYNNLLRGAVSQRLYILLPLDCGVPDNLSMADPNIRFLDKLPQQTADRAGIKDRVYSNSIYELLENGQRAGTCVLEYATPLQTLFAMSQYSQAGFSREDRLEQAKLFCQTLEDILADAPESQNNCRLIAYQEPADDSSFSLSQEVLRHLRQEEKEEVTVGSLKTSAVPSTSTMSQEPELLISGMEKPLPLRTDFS
T1 sequence (Q86WV6 140-379 H232R limits assumed): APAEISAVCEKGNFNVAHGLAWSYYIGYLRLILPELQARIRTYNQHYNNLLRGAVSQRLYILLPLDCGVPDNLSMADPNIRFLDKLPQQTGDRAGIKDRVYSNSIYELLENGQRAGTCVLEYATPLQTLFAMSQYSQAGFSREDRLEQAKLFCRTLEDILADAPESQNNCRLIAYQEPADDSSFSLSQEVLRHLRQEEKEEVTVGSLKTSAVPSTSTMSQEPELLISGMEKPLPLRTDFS
T2 sequence (Q86WV6 140-379): as the sequence (Q86WV6 140-379 H232R limits assumed) above, with R93H counted along it
T3 sequence (Q86WV6 140-379 G230A/H232R/R293Q limits assumed): as the sequence (Q86WV6 140-379 H232R limits assumed) above, with G91A, R154Q counted along it

Row | hSTING Tm Shift WT [2] | hSTING Tm Shift REF [3] | hSTING Tm Shift HAQ [5] | EC50 [6] | SMILES | Tm shift compared with reference compound 2′3′-RR-(A)(A) [2] | Tm shift compared with 2′3′-RR-(A)(A) and 2′3′-(G)(A) [3] | other results
1 | 11.3 °C | 8.7 °C | 18.3 °C | 19.3 µM | Nc1ncnc2c1ncn2[C@@H]1O[C@@]23CO[C@@H]1[C@@H]2O[P@@](=O)(S)OC[C@@]12CO[C@@H]([C@H](n4cnc5c(N)ncnc54)O1)[C@@H]2O[P@](=O)(S)OC3 [Compound 5b] | comparable to or greater than that of the reference compound 2′3′-RR-(A)(A) | greater Tm shift than both 2′3′-RR-(A)(A) and 2′3′-(G)(A) | 
2 | 13.2 °C | 9.3 °C | 19.3 °C | 38 µM | Nc1nc2c(ncn2[C@@H]2O[C@@]34CO[C@@H]2[C@@H]3O[P@@](=O)(S)OC[C@H]2O[C@@H](n3cnc5c(N)ncnc53)[C@H](O)[C@@H]2O[P@](=O)(S)OC4)c(=O)[nH]1 [Compound 33b, 2-amino-9-((2R,3R,3 aS,5S,7aR,9R,10R,10aS,12R,14aR)-9-(6-amino-9H-purin-9-yl)-10-hydroxy-5,12-dimercapto-5,12-dioxidohexahydro-2H,7H,14H-3,14a-(epoxymethano)difuro[3,2-d:3′,2′-j][1,3,7,9]tetraoxa[2,8]diphosphacyclododecin-2-yl)-1,9-dihydro-6H-purin-6-one] | comparable to or greater than that of the reference compound 2′3′-RR-(A)(A) | greater Tm shift than both 2′3′-RR-(A)(A) and 2′3′-(G)(A) | 
3 | 11.8 °C | 10.2 °C | 18.2 °C | 10 µM | Nc1ncnc2c1ncn2[C@@H]1O[C@@H]2CO[P@@](=O)(S)O[C@H]3[C@H]4OC[C@]3(CO[P@@](=O)(S)O[C@@H]1[C@@H]2F)O[C@H]4n1cnc2c(N)ncnc21 [Compound 27a, dithio-(Rp,Rp)-cyclic-[3′F-A(2′,5′)p-2′O,4′C-LNA-A(3′,5′)p]] | comparable to or greater than that of the reference compound 2′3′-RR-(A)(A) | greater Tm shift than both 2′3′-RR-(A)(A) and 2′3′-(G)(A) | 
4 | 4.3 °C | 4.4 °C | 5.6 °C | 341 µM | O=C(Nc1ncnc2c1ncn2[C@@H]1O[C@@]23CO[C@@H]1[C@@H]2O[P@](=O)(S)OC[C@@]12CO[C@@H]([C@H](n4cnc5c(NC(=O)c6ccccc6)ncnc54)O1)[C@@H]2O[P@](=O)(S)OC3)c1ccccc1 [Compound 4a] |  |  | 
5 | 4.1 °C | 3.2 °C | 5.0 °C | > 150 µM | Nc1ncnc2c1ncn2[C@@H]1O[C@@H]2CO[P@](=O)(S)O[C@H]3[C@H]4OC[C@]3(CO[P@](=O)(S)O[C@@H]1[C@@H]2O)O[C@H]4n1cnc2c(N)ncnc21 [Compound 10d, dithio-(Sp,Sp)-cyclic-[A(2′,5′)p-2′O,4′-C-LNA-A(3′,5′)p]] |  |  | 
6 | 4.7 °C | 2.1 °C | 11.2 °C | 61.2 µM | Nc1ncnc2c1ncn2[C@@H]1O[C@@H]2CO[P@@](=O)(S)O[C@H]3[C@H]4OC[C@]3(CO[P@@](=O)(S)O[C@@H]1[C@H]2F)O[C@H]4n1cnc2c(N)ncnc21 [Compound 37a, dithio-(RP,RP)-cyclic-[3′βF-A(2′,5′)p-2′O,4′C-LNA-A(3′,5′)p]] |  |  | 
7 | 20.3 °C | 13.1 °C | 34.0 °C | 5.8 µM | Nc1nc2c(ncn2[C@@H]2O[C@@H]3CO[P@@](=O)(S)O[C@H]4[C@H]5OC[C@]4(CO[P@@](=O)(S)O[C@H]3[C@H]2O)O[C@H]5n2cnc3c(N)ncnc32)c(=O)[nH]1 [Compound 45a, 2-amino-9-((2R,3R,3aS,5R,7aR,9R,10R,10aS,12R,14aR)-2-(6-amino-9H-purin-9-yl)-10-hydroxy-5,12-dimercapto-5,12-dioxidohexahydro-2H,7H,14H-3,14a-(epoxymethano)difuro[3,2-d:3′,2′-j][1,3,7,9]tetraoxa[2,8]diphosphacyclododecin-9-yl)-1,9-dihydro-6H-purin-6-one] | comparable to or greater than that of the reference compound 2′3′-RR-(A)(A) | greater Tm shift than both 2′3′-RR-(A)(A) and 2′3′-(G)(A) | Tm shift compared with natural ligand 2′3′-(G)(A) [2]: greater Tm shift than the natural ligand 2′3′-(G)(A)
8 |  |  |  |  | Nc1nc2c(ncn2[C@@H]2O[C@@H]3CO[P@@](=O)(S)O[C@H]4[C@H]5OC[C@]4(CO[P@](=O)(S)O[C@@H]2[C@@H]3F)O[C@H]5n2cnc3c(N)ncnc32)c(=O)[nH]1 [Compound 15c, 2′3′-SR-(3′F-G)(2′O,4′C-LNA-A)] |  |  | anti-tumor effect (tumor volume) [10]: no anti-tumor effect; tumor rejection (tumor volume) compared to HBSS [11]: complete tumor rejection

Row | SMILES | hSTING Tm Shift WT [2] | hSTING Tm Shift REF [3] | hSTING Tm Shift HAQ [5] | EC50 [6] | Tm shift compared with reference compound 2′3′-RR-(A)(A) [2] | Tm shift compared with 2′3′-RR-(A)(A) and 2′3′-(G)(A) [3] | other results
9 | Nc1ncnc2c1ncn2[C@@H]1O[C@@]23CO[C@@H]1[C@@H]2O[P@](=O)(S)OC[C@@]12CO[C@@H]([C@H](n4cnc5c(N)ncnc54)O1)[C@@H]2O[P@](=O)(S)OC3 [Compound 5a] | 16.8 °C | 10.6 °C | 27.6 °C | 41.6 µM | comparable to or greater than that of the reference compound 2′3′-RR-(A)(A) | greater Tm shift than both 2′3′-RR-(A)(A) and 2′3′-(G)(A) | safety profile compared to reference compound 2′3′-RR-(A)(A) [1]: comparable safety profile; Tm shift compared with natural ligand 2′3′-(G)(A) [2]: greater Tm shift than the natural ligand 2′3′-(G)(A); tumor efficacy compared to reference compound 2′3′-RR-(A)(A) ([4]; single IT injection): comparable tumor efficacy as compared to the reference compound 2′3′-RR-(A)(A); tumor regression ([4]; single IT injection, 100 μg dose): complete tumor regression; tumor inhibition (tumor volume) compared to HBSS [4]: potent tumor inhibition as compared to HBSS, in a dose-dependent manner; IFNγ ELISPOT T cell responses compared to reference compound 2′3′-RR-(A)(A) [7]: comparable T cell responses; T cell production of IFNγ in response to SIY peptide stimulation, compared to HBSS ([7]; 0.1, 1 and 10 μg doses): significantly higher T cell production of IFNγ
10 | Nc1ncnc2c1ncn2[C@@H]1O[C@@H]2CO[P@@](=O)(S)O[C@H]3[C@H]4OC[C@]3(CO[P@](=O)(S)O[C@@H]1[C@@H]2O)O[C@H]4n1cnc2c(N)ncnc21 [Compound 10c] | 6.5 °C | 5.0 °C | 10.4 °C | > 150 µM |  |  | safety profile compared to reference compound 2′3′-RR-(A)(A) [1]: superior safety profile; range of dose responses (therapeutic window for anti-tumor immunity) [8]: a broader range of dose responses; systemic cytokines compared with 2′3′-RR-(A)(A) [9]: significantly lower systemic cytokines than 2′3′-RR-(A)(A); tumor efficacy compared to reference compound 2′3′-RR-(A)(A) ([4]; single IT injection): comparable tumor efficacy as compared to the reference compound 2′3′-RR-(A)(A); tumor inhibition (tumor volume) compared to HBSS [4]: potent tumor inhibition as compared to HBSS, in a dose-dependent manner; IFNγ ELISPOT T cell responses compared to reference compound 2′3′-RR-(A)(A) [7]: comparable responses; IFNγ ELISPOT responses compared to HBSS ([7]; all doses tested (0.1, 1, 10, 100 μg)): significantly higher responses; range of efficacy (doses giving IFNγ ELISPOT response) [7]: an even broader range of efficacy than Compound 5a
